Assay: Compound was tested for inhibition of partially purified squalene epoxidase

Which IC50 does the source give for `CCN(Cc1cccc(OCc2cc(-c3cccs3)cs2)c1)c1cc(O)cc(C2(C(F)(F)F)N=N2)c1` [3-{[3-([2,3']Bithiophenyl-5'-ylmethoxy)-benzyl]-ethyl-amino}-5-(3-trifluoromethyl-3H-diazirin-3-yl)-phenol] here?
Its IC50 is 500 µM.

For `CCN(CC=CC#CC(C)(C)C)Cc1cccc(OCc2cc(CO)cc(C3(C(F)(F)F)N=N3)c2)c1` [[3-(3-{[((E)-6,6-Dimethyl-hept-2-en-4-ynyl)-ethyl-amino]-methyl}-phenoxymethyl)-5-(3-trifluoromethyl-3H-diazirin-3-yl)-phenyl]-methanol], which IC50 is on record?
Its IC50 is 500 µM.

For `CCN(Cc1cccc(OCc2cc(-c3cccs3)cs2)c1)c1ccc(C(=O)c2ccc(CCl)cc2)cc1` [(4-{[3-([2,3']Bithiophenyl-5'-ylmethoxy)-benzyl]-ethyl-amino}-phenyl)-(4-chloromethyl-phenyl)-methanone], which IC50 is on record?
Its IC50 is 500 µM.

Reference: BindingDB's records for doi:10.1016/S0960-894X(00)80067-0 (1994)
